Results published in patent US20250098680A1 (priority 2022, published 2025).

Assays:
[1] = tested on: Pseudoperonospora cubensis; test: Microplate-based cucumber leaf disc screening against Pseudoperonospora cubensis; type: cell-based
Description: Background: Pseudoperonospora cubensis is an obligatory pathogen from Oomycetes which is very difficult to grow on synthetic medium. Therefore, the bioactivity screening system based on leaf discs prepared from detached cucumber leaves were used.
Summary: dihydroquinidine or dihydroquinine were dissolved in DMSO were added to cucumber leaf discs infected with Pseudoperonospora and the disease progress was monitored by visual inspection.
General description: Inoculation and maintenance on cucumber leaves, preparation of spore suspension, their growth on leaf discs in microplates and inspection by magnifying glass of Pseudoperonospora cubensis severity of infection.
• 1) Grow plants, in the growth room (27° C.), high light radiation. • 2) Use standard garden soil. • 3) Plant cucumber seeds. • 4) Add fertilizer once a week.
• 1) Put 3 (double) pieces of sterile paper in a square Petri dish. • 2) Work in sterile conditions. • 3) Use leaves from healthy plants. The leaves should be young and healthy, their size should fit to the square plate. • 4) Cut the leaves by a sterile scalpel, leaving a long stem. • 5) Add 10 ml sterile distilled water to wet the paper (the paper should be maximally wet, but without additional dripping water), discard excess of water. […]

[2] = tested on: Phytophthora infestans; type: in vivo, Phytophthora infestans on tomato; settings: tomato seedlings, greenhouse, preventative spraying, Formulation 15 or 16, four independent experiments (FIGS. 1-4)
[3] = tested on: Phytophthora infestans; type: cell-based; settings: for effective pesticide against Phytophthora infestans (summary in words): summary of in vitro screening; for Bio-activity value Phytophthora infestans: tomato leaf discs, compound dissolved in DMSO, visual score 5 days, % from maximal value
[4] = tested on: Cucumber downey mildew; settings: described in JP2003081945A; cited from earlier work

Compound	Bio-activity value Pseudoperonospora cubensis ([1]; cucumber leaf discs, compound dissolved in DMSO, visual score 7 days after inoculation, % from maximal value) [%]	effective pesticide against Pseudoperonospora cubensis (summary in words) ([1]; summary of in vitro screening)	efficacy of control of Phytophthora infection [2]	effective pesticide against Phytophthora infestans (summary in words) [3]	Bio-activity value Phytophthora infestans [3] [%]	bioactivity against Cucumber downey mildew [4]
CCC1C[N@]2CC[C@H]1C[C@@H]2C(O)c1ccnc2ccc(OC)cc12 (stereo in doubt) [DIHYDROQUINIDINE, (S)-[(2R,4S,5R)-5-ethyl-1-azabicyclo[2.2.2]octan-2-yl](6-methoxyquinolin-4-yl) methanol]	66	effective	up to 89.38%	effective	100	–
CCC1C[N@]2CC[C@H]1C[C@H]2C(O)c1ccnc2ccc(OC)cc12 (stereo in doubt) [DIHYDROQUININE, (R)-[(2S,4S,5R)-5-ethyl-1-azabicyclo[2.2.2]octan-2-yl](6-methoxyquinolin-4-yl) methanol]	–	–	–	affective	83	–
C=C[C@H]1C[N@@]2CC[C@H]1C[C@H]2[C@H](O)c1ccnc2ccc(OC)cc12 [quinine]	–	–	–	–	–	fungicidal bioactivity
